Assay: Binding affinity was determined towards Opioid receptor delta 1 using [3H]naltrindole as radioligand
`Nc1ccc2c3c1O[C@H]1C(=O)CC[C@@]4(O)[C@@H](C2)N(CC2CC2)CC[C@]314` [10-amino-4-cyclopropylmethyl-17-hydroxy-(1S,5R,13R,17S)-12-oxa-4-azapentacyclo[9.6.1.01,13.05,17.07,18]octadeca-7(18),8,10-trien-14-one] showed a Ki of 880 nM. In the case of `CC1[C@H]2Cc3ccc(NC=O)cc3[C@]1(C)CCN2CC1CC1` (stereo partly drawn) [(1R,9R,13R)-10-(cyclopropylmethyl)-1,13-dimethyl-10-azatricyclo[7.3.1.0~2,7~]trideca-2,4,6-trien-4-ylformamide], the Ki is reported as 9.8 nM. For `C[C@@H]1C2Cc3ccc(NC=O)cc3[C@]1(C)CCN2CC1CC1` [(1S,9S,13S)-10-(cyclopropylmethyl)-1,13-dimethyl-10-azatricyclo[7.3.1.0~2,7~]trideca-2,4,6-trien-4-ylformamide], the Ki was > 10000 nM. In the case of `C[C@H]1C2Cc3ccc(N(C)C=O)cc3[C@@]1(C)CCN2CC1CC1` [N-((6S,11R)-3-Cyclopropylmethyl-6,11-dimethyl-1,2,3,4,5,6-hexahydro-2,6-methano-benzo[d]azocin-8-yl)-N-methyl-formamide], the Ki is reported as 6200 nM. In the case of `CC(=O)Nc1ccc2c(c1)[C@@]1(C)CCN(CC3CC3)C(C2)[C@@H]1C` [N-((6S,11R)-3-Cyclopropylmethyl-6,11-dimethyl-1,2,3,4,5,6-hexahydro-2,6-methano-benzo[d]azocin-8-yl)-acetamide], the Ki is reported as 1700 nM. In the case of `C[C@H]1C2Cc3ccc(NC(=O)c4ccccc4)cc3[C@@]1(C)CCN2CC1CC1` [N-((6S,11R)-3-Cyclopropylmethyl-6,11-dimethyl-1,2,3,4,5,6-hexahydro-2,6-methano-benzo[d]azocin-8-yl)-benzamide], the Ki is reported as 2400 nM. Work on `C[C@H]1C2Cc3ccc(NC=O)cc3[C@@]1(C)CCN2CC1CC1` [N-((6S,11R)-3-Cyclopropylmethyl-6,11-dimethyl-1,2,3,4,5,6-hexahydro-2,6-methano-benzo[d]azocin-8-yl)-formamide] yielded a Ki of 37 nM. `CC[C@@]12CCN(CC3CC3)C(C(=O)c3ccc(NC=O)cc31)[C@@H]2C` [N-((6S,11R)-3-Cyclopropylmethyl-6-ethyl-11-methyl-1-oxo-1,2,3,4,5,6-hexahydro-2,6-methano-benzo[d]azocin-8-yl)-formamide] gave a Ki of 52 nM. For `O=CNc1ccc2c3c1O[C@H]1C(=O)CC[C@@]4(O)[C@@H](C2)N(CC2CC2)CC[C@]314` [N-[4-cyclopropylmethyl-17-hydroxy-14-oxo-(1S,5R,17S)-12-oxa-4-azapentacyclo[9.6.1.01,13.05,17.07,18]octadeca-7(18),8,10-trien-10-yl]methanamide], the Ki was 420 nM.

From BindingDB's records for doi:10.1016/s0960-894x(03)00295-6 (Rensselaer Polytechnic Institute, 2003)
